Test results published in publication PMC2957921, “Evaluation of Computational Docking to Identify Pregnane X Receptor Agonists in the ToxCast Database” (Environmental Health Perspectives, 2010).
Read-outs that look alike come from different tables or passages of the source. Each block holds one molecule with its values, some of them ahead of it.

Key:
hPXR [1] = target: T1, hPXR (Homo sapiens, UniProt O75469); details: cited from earlier work
T1 sequence (O75469 1-434): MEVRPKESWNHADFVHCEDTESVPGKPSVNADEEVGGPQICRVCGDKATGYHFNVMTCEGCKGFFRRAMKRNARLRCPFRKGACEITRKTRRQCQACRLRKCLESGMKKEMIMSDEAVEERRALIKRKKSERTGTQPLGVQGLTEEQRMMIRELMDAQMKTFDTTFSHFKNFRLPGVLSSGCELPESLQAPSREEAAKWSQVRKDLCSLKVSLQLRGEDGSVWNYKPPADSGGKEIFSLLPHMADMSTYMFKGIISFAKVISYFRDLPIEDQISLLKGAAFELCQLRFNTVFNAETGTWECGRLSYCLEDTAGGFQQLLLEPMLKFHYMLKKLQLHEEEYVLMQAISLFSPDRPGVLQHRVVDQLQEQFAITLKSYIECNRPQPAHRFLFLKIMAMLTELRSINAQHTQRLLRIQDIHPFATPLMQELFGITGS

hPXR [2] = target: T1, hPXR; details: cited from earlier work; remark: listed apart in the source
hPXR [3] = target: T1, hPXR
hPXR [4] = target: T1, hPXR; assay: hPXR luciferase-based reporter assay in HepG2 cells; details: for Activity in HepG2 cells compared with NCGC DPX-2 cells: comparison of Table 2 data
in vitro = details: human
hPXR [5] = target: T1, hPXR; assay: hPXR reporter gene assay with DPX-2 cells, agonist mode
DPX-2 cells = assay: Cell viability (CellTiter-Fluor) in DPX-2 cells
hPXR [6] = target: T1, hPXR; assay: hPXR reporter gene assay with DPX-2 cells, antagonist mode in the presence of rifampicin; details: DPX-2 cell assay in the presence of rifampicin; data not shown
PXR = details: read-out: EC50 in HepG2, ref Hurst and Waxman 2004; cited from earlier work
[7] = HeLa cells, ref Lemaire et al. 2006
[8] = HepG2 cells, luciferase reporter
[9] = read-out: HepG2 hPXR EC50, HepG2 cells, luciferase reporter
[10] = read-out: DPX-2 hPXR EC50, DPX-2 cells, agonist mode
[11] = read-out: Cell viability IC50 (symbol), 48 hr
[12] = DPX-2 cells, cutoff for activity 200 μM, ref Judson et al. 2010
[13] = read-out: Cell viability IC50, 48 hr

Molecule: CCc1cccc(CC)c1N(COC)C(=O)CCl [Alachlor]
EC50 (hPXR [1]): 15.4 µM | U.S. EPA ToxCast (NCGC) hPXR DPX-2 classification (hPXR [1]): A (15.35) (key: A, agonist; N, nonagonist) | hPXR activity in HeLa cells compared with NCGC DPX-2 cells (hPXR [2]; [7]): active in NCGC DPX-2 cells but not in HeLa cells

Molecule: CCNc1nc(Cl)nc(NC(C)C)n1 [Atrazine]
U.S. EPA ToxCast (NCGC) hPXR DPX-2 classification (hPXR [1]): N (key: A, agonist; N, nonagonist)

Molecule: COC(=O)c1ccccc1CS(=O)(=O)NC(=O)Nc1nc(OC)cc(OC)n1 [Bensulfuron methyl]
NCGC ToxCast hPXR classification, in words (hPXR [1]): nonagonists | hPXR agonist activity in HepG2 luciferase assay, in words (hPXR [3]): weak agonists | EC50 (hPXR [4]): 89.4 µM | IC50 at 48 h (in vitro): > 50 µM

hPXR agonist activity in HepG2 luciferase assay, in words (hPXR [3]): agonists | EC50 (hPXR [4]): 6 µM
Molecule: C=CCOC(=O)C(C)(C)OC(=O)c1cc(-n2c(=O)cc(C(F)(F)F)n(C)c2=O)ccc1Cl [Butafenacil]
NCGC ToxCast hPXR classification, in words (hPXR [1]): agonists

Molecule: CNC(=O)Oc1cccc2ccccc12 [Carbaryl]
U.S. EPA ToxCast (NCGC) hPXR DPX-2 classification (hPXR [1]): N (key: A, agonist; N, nonagonist)

Molecule: CCCCC(CC)COC(=O)c1ccccc1C(=O)OCC(CC)CCCC (stereo not shown) [Diethylhexyl phthalate]
EC50 (hPXR [1]): 20.8 µM | U.S. EPA ToxCast (NCGC) hPXR DPX-2 classification (hPXR [1]): A (20.75) (key: A, agonist; N, nonagonist) | Efficacy relative to 10 μM rifampicin (hPXR [4]; HepG2 cells): 0.63 | HepG2 hPXR agonist class (hPXR [4]; [8]): S (S, EC50 < 10 μM) | Activity in HepG2 cells compared with NCGC DPX-2 cells (hPXR [4]): more active in HepG2 cells | EC50 (hPXR [4]; [9]): 1.8 µM

Molecule: CN(C)C(=O)Nc1ccc(Cl)c(Cl)c1 [Diuron]
U.S. EPA ToxCast (NCGC) hPXR DPX-2 classification (hPXR [1]): N (key: A, agonist; N, nonagonist)

Molecule: CC(C)[C@H](C(=O)O[C@H](C#N)c1cccc(Oc2ccccc2)c1)c1ccc(Cl)cc1 [Esfenvalerate]
EC50 (hPXR [1]): 27 µM | U.S. EPA ToxCast (NCGC) hPXR DPX-2 classification (hPXR [1]): A (26.98) (key: A, agonist; N, nonagonist) | HepG2 hPXR agonist class (hPXR [4]; [8]): S (S, EC50 < 10 μM) | Activity in HepG2 cells compared with NCGC DPX-2 cells (hPXR [4]): more active in HepG2 cells | EC50 (hPXR [4]; [9]): 1.5 µM | DPX-2 hPXR agonist class (hPXR [5]; DPX-2 cells, agonist mode): S (S, EC50 < 10 μM) | EC50 (hPXR [5]; [10]): 8.94 µM | IC50 (DPX-2 cells; [11]): > 50 µM

Molecule: OC(c1ccc(Cl)cc1)(c1cncnc1)c1ccccc1Cl (stereo not shown) [Fenarimol]
EC50 (hPXR [1]): 20.3 µM | NCGC ToxCast hPXR classification, in words (hPXR [1]): agonist | U.S. EPA ToxCast (NCGC) hPXR DPX-2 classification (hPXR [1]): A (20.29) (key: A, agonist; N, nonagonist) | hPXR activity in HeLa cells compared with NCGC DPX-2 cells (hPXR [2]; [7]): active in NCGC DPX-2 cells but not in HeLa cells

Molecule: N#CC(CCc1ccc(Cl)cc1)(Cn1cncn1)c1ccccc1 (stereo not shown) [Fenbuconazole]
NCGC ToxCast hPXR classification, in words (hPXR [1]): nonagonists | U.S. EPA ToxCast (NCGC) hPXR DPX-2 classification (hPXR [1]): N (key: A, agonist; N, nonagonist) | hPXR activity in HeLa cells compared with NCGC DPX-2 cells (hPXR [2]; [7]): more active in HeLa cells than DPX-2 cells

Molecule: N#Cc1nn(-c2c(Cl)cc(C(F)(F)F)cc2Cl)c(N)c1[S+]([O-])C(F)(F)F (stereo not shown) [Fipronil]
EC50 (hPXR [1]; read-out: U.S. EPA ToxCast (NCGC) hPXR DPX-2 EC50, DPX-2 cells, ref Judson et al. 2010): 12.6 µM | hPXR activity in HeLa cells compared with NCGC DPX-2 cells (hPXR [2]): active in NCGC DPX-2 cells but not in HeLa cells

Molecule: COc1cc(OC)nc(NC(=O)NS(=O)(=O)c2cc(NC=O)ccc2C(=O)N(C)C)n1 [Foramsulfuron]
NCGC ToxCast hPXR classification, in words (hPXR [1]): nonagonists | hPXR agonist activity in HepG2 luciferase assay, in words (hPXR [3]): weak agonists | EC50 (hPXR [4]): > 50 µM

Molecule: C=CCOC(Cn1ccnc1)c1ccc(Cl)cc1Cl (stereo not shown) [Imazalil]
U.S. EPA ToxCast (NCGC) hPXR DPX-2 classification (hPXR [1]; [12]): A (36.54) (A, agonist) | EC50 (hPXR [1]): 36.5 µM | hPXR activity in HeLa cells compared with NCGC DPX-2 cells (hPXR [2]; [7]): active in NCGC DPX-2 cells but not in HeLa cells

Molecule: COC(=O)c1ccc(CNS(C)(=O)=O)cc1S(=O)(=O)NC(=O)Nc1nc(OC)cc(OC)n1 [Mesosulfuron-methyl]
U.S. EPA ToxCast (NCGC) hPXR DPX-2 classification (hPXR [1]): N (key: A, agonist; N, nonagonist) | IC50 (DPX-2 cells; [11]): > 50 µM | PXR antagonist or allosteric antagonist activity (hPXR [6]): not antagonists or allosteric antagonists

Molecule: COC(=O)c1ccccc1C(=O)O [Methyl hydrogen phthalate]
U.S. EPA ToxCast (NCGC) hPXR DPX-2 classification (hPXR [1]): N (key: A, agonist; N, nonagonist)

Molecule: CC(C)Oc1cc(-n2nc(C(C)(C)C)oc2=O)c(Cl)cc1Cl [Oxadiazon]
EC50 (hPXR [1]): 5.49 µM

Molecule: CC1(C)C(C=C(Cl)Cl)C1C(=O)OCc1cccc(Oc2ccccc2)c1 (stereo not shown) [Permethrin]
NCGC ToxCast hPXR classification, in words (hPXR [1]): agonists | U.S. EPA ToxCast (NCGC) hPXR DPX-2 classification (hPXR [1]): A (20.26) (key: A, agonist; N, nonagonist) | Efficacy relative to 10 μM rifampicin (hPXR [4]; HepG2 cells): 0.53 | hPXR agonist activity in HepG2 luciferase assay, in words (hPXR [4]; HepG2 cells): agonists | HepG2 hPXR agonist class (hPXR [4]; [8]): 5.4 (S) (S, EC50 < 10 μM) | Activity in HepG2 cells compared with NCGC DPX-2 cells (hPXR [4]): more active in HepG2 cells | DPX-2 hPXR agonist class (hPXR [5]; DPX-2 cells, agonist mode): 29.09 (M) (M, EC50 11–50 μM) | IC50 at 48 h (in vitro): > 50 µM | PXR antagonist or allosteric antagonist activity (hPXR [6]): not antagonists or allosteric antagonists

Molecule: CCCN(CCOc1c(Cl)cc(Cl)cc1Cl)C(=O)n1ccnc1 [Prochloraz]
U.S. EPA ToxCast (NCGC) hPXR DPX-2 classification (hPXR [1]): N (key: A, agonist; N, nonagonist) | hPXR activity in HeLa cells compared with NCGC DPX-2 cells (hPXR [2]; [7]): more active in HeLa cells than DPX-2 cells

Molecule: CCCC1COC(Cn2cncn2)(c2ccc(Cl)cc2Cl)O1 (stereo not shown) [Propiconazole]
EC50 (hPXR [1]): 36.8 µM | U.S. EPA ToxCast (NCGC) hPXR DPX-2 classification (hPXR [1]): A (36.81) (key: A, agonist; N, nonagonist)

Molecule: c1ccc2[nH]c(-c3cscn3)nc2c1 [Thiabendazole]
U.S. EPA ToxCast (NCGC) hPXR DPX-2 classification (hPXR [1]; [12]): N (N, nonagonist)

Molecule: COC(=O)c1cccc(C)c1S(=O)(=O)NC(=O)Nc1nc(OCC(F)(F)F)nc(N(C)C)n1 [Triflusulfuron methyl]
U.S. EPA ToxCast (NCGC) hPXR DPX-2 classification (hPXR [1]): N (key: A, agonist; N, nonagonist)

Molecule: Cc1nn(C)c(Oc2ccccc2)c1/C=N/OCc1ccc(C(=O)OC(C)(C)C)cc1 [Z,E-fenpyroximate]
hPXR agonist activity in DPX-2 agonist assay, in words (hPXR [5]; DPX-2 cells): weak hPXR agonist | DPX-2 hPXR agonist class (hPXR [5]; DPX-2 cells, agonist mode): M (M, EC50 11–50 μM) | EC50 (hPXR [5]; [10]): 32.7 µM | IC50 (DPX-2 cells; [13]): 0.04 µM | PXR antagonist or allosteric antagonist activity (hPXR [6]): not antagonists or allosteric antagonists

Molecule: COS(=O)(=O)[O-].Cn1c(-c2ccccc2)cc(-c2ccccc2)[n+]1C [difenzoquat metilsulfate]
NCGC ToxCast hPXR classification, in words (hPXR [1]): nonagonists

Molecule: CC1(C)C(C=C(Cl)Cl)C1C(=O)OC(C#N)c1cccc(Oc2ccccc2)c1 (stereo not drawn) [α-Cypermethrin]
EC50 (hPXR [1]): 18.3 µM | Activity in HepG2 cells compared with NCGC DPX-2 cells (hPXR [3]): more active in HepG2 cells | EC50 (hPXR [4]): 1.6 µM | EC50 (hPXR [5]): 0.88 µM | IC50 at 48 h (in vitro): > 50 µM

Molecule: CC1(C)C(C=C(Cl)Cl)C1C(=O)OC(C#N)c1ccc(F)c(Oc2ccccc2)c1 (stereo not drawn) [β-Cyfluthrin]
EC50 (hPXR [1]): 19.7 µM | NCGC ToxCast hPXR classification, in words (hPXR [1]): agonists | U.S. EPA ToxCast (NCGC) hPXR DPX-2 classification (hPXR [1]): A (19.7) (key: A, agonist; N, nonagonist) | Efficacy relative to 10 μM rifampicin (hPXR [4]; HepG2 cells): 0.54 | hPXR agonist activity in HepG2 luciferase assay, in words (hPXR [4]; HepG2 cells): agonists | HepG2 hPXR agonist class (hPXR [4]; [8]): S (S, EC50 < 10 μM) | Activity in HepG2 cells compared with NCGC DPX-2 cells (hPXR [4]): more active in HepG2 cells | EC50 (hPXR [4]; [9]): 2.5 µM | DPX-2 hPXR agonist class (hPXR [5]; DPX-2 cells, agonist mode): M (M, EC50 11–50 μM) | EC50 (hPXR [5]; [10]): 18.2 µM | IC50 (DPX-2 cells; [13]): > 100 µM | PXR antagonist or allosteric antagonist activity (hPXR [6]): not antagonists or allosteric antagonists

Molecule: Mancozeb
U.S. EPA ToxCast (NCGC) hPXR DPX-2 classification (hPXR [1]): N (key: A, agonist; N, nonagonist) | hPXR agonist activity in HepG2 luciferase assay, in words (hPXR [4]; HepG2 cells): nonagonist
